Data reported in ChEMBL document CHEMBL3861944 (Medchemcomm, 2016).

How the values were obtained:
[1] = Cell cycle arrest in human THP1 cells assessed as accumulation at G0/G1 phase at 0.5 uM after 24 hrs by flow cytometric method (reference value: 51 +/- 6%); assay type: functional, cell-based; details: THP-1
[2] = Cell cycle arrest in human AsPC1 cells assessed as accumulation at G2/M phase at 10 uM after 24 hrs by flow cytometric method (reference value: 29 +/- 5%); assay type: functional, cell-based
[3] = Cell cycle arrest in human AsPC1 cells assessed as accumulation at G0/G1 phase at 10 uM after 24 hrs by flow cytometric method (reference value: 48 +/- 7%); assay type: functional, cell-based
[4] = Cell cycle arrest in human AsPC1 cells assessed as accumulation at S phase at 75 uM after 24 hrs by flow cytometric method (reference value: 23 +/- 3%); assay type: functional, cell-based
ASPC1 [5] = test: Pro-apoptotic activity in human AsPC1 cells assessed as necrotic cells at 50 uM after 24 hrs by annexin V/propidium iodide staining-based flow cytometric method (reference value: 2.1 +/- 0.4%); assay type: functional
[6] = Cell cycle arrest in human AsPC1 cells assessed as accumulation at G0/G1 phase at 100 uM after 24 hrs by flow cytometric method (reference value: 48 +/- 7%); assay type: functional, cell-based
[7] = Cell cycle arrest in human AsPC1 cells assessed as accumulation at G0/G1 phase at 1 uM after 24 hrs by flow cytometric method (reference value: 48 +/- 7%); assay type: functional, cell-based
[8] = Cell cycle arrest in human AsPC1 cells assessed as accumulation at G2/M phase at 1 uM after 24 hrs by flow cytometric method (reference value: 29 +/- 5%); assay type: functional, cell-based
[9] = Cell cycle arrest in human THP1 cells assessed as accumulation at G0/G1 phase at 30 uM after 24 hrs by flow cytometric method (reference value: 51 +/- 6%); assay type: functional, cell-based; details: THP-1
THP-1 [10] = test: Pro-apoptotic activity in human THP1 cells assessed as late apoptotic cells at 0.5 uM after 24 hrs by annexin V/propidium iodide staining-based flow cytometric method (reference value: 0.4 +/- 0.1%); assay type: functional
[11] = Cell cycle arrest in human THP1 cells assessed as accumulation at G0/G1 phase at 1 uM after 24 hrs by flow cytometric method (reference value: 51 +/- 6%); assay type: functional, cell-based; details: THP-1
ASPC1 [12] = test: Pro-apoptotic activity in human AsPC1 cells assessed as late apoptotic cells at 50 uM after 24 hrs by annexin V/propidium iodide staining-based flow cytometric method (reference value: 0.8 +/- 0.1%); assay type: functional
ASPC1 [13] = test: Pro-apoptotic activity in human AsPC1 cells assessed as necrotic cells at 100 uM after 24 hrs by annexin V/propidium iodide staining-based flow cytometric method (reference value: 2.1 +/- 0.4%); assay type: functional
[14] = Cell cycle arrest in human THP1 cells assessed as accumulation at G2/M phase at 3 uM after 24 hrs by flow cytometric method (reference value: 32 +/- 1%); assay type: functional, cell-based; details: THP-1
[15] = Cell cycle arrest in human THP1 cells assessed as accumulation at G0/G1 phase at 3 uM after 24 hrs by flow cytometric method (reference value: 51 +/- 6%); assay type: functional, cell-based; details: THP-1
ASPC1 [16] = test: Pro-apoptotic activity in human AsPC1 cells assessed as late apoptotic cells at 100 uM after 24 hrs by annexin V/propidium iodide staining-based flow cytometric method (reference value: 0.8 +/- 0.1%); assay type: functional
[17] = Antioxidant activity assessed as DPPH free radical scavenging activity incubated for 30 mins in dark; assay type: functional
[18] = Cell cycle arrest in human THP1 cells assessed as decrease in cell levels at G0/G1 phase after 24 hrs by flow cytometric method; assay type: functional, cell-based; details: THP-1
THP-1 [19] = test: Pro-apoptotic activity in human THP1 cells assessed as late apoptotic cells at 1 uM after 24 hrs by annexin V/propidium iodide staining-based flow cytometric method (reference value: 0.4 +/- 0.1%); assay type: functional
[20] = Cell cycle arrest in human THP1 cells assessed as accumulation at G2/M phase at 0.5 uM after 24 hrs by flow cytometric method (reference value: 32 +/- 1%); assay type: functional, cell-based; details: THP-1
THP-1 [21] = test: Pro-apoptotic activity in human THP1 cells assessed as early apoptotic cells at 30 uM after 24 hrs by annexin V/propidium iodide staining-based flow cytometric method (reference value: 0.4 +/- 0.1%); assay type: functional
[22] = Cell cycle arrest in human THP1 cells assessed as accumulation at G2/M phase at 30 uM after 24 hrs by flow cytometric method (reference value: 32 +/- 1%); assay type: functional, cell-based; details: THP-1
[23] = Cell cycle arrest in human AsPC1 cells assessed as accumulation at S phase at 10 uM after 24 hrs by flow cytometric method (reference value: 23 +/- 3%); assay type: functional, cell-based
[24] = Cell cycle arrest in human THP1 cells assessed as accumulation at G0/G1 phase at 0.75 uM after 24 hrs by flow cytometric method (reference value: 51 +/- 6%); assay type: functional, cell-based; details: THP-1
[25] = Cell cycle arrest in human THP1 cells assessed as accumulation at S phase at 0.75 uM after 24 hrs by flow cytometric method (reference value: 16 +/- 2%); assay type: functional, cell-based; details: THP-1
ASPC1 [26] = test: Pro-apoptotic activity in human AsPC1 cells assessed as late apoptotic cells at 10 uM after 24 hrs by annexin V/propidium iodide staining-based flow cytometric method (reference value: 0.8 +/- 0.1%); assay type: functional
THP-1 [27] = test: Pro-apoptotic activity in human THP1 cells assessed as necrotic cells at 3 uM after 24 hrs by annexin V/propidium iodide staining-based flow cytometric method relative to control; assay type: functional
[28] = Cell cycle arrest in human THP1 cells assessed as accumulation at S phase at 30 uM after 24 hrs by flow cytometric method (reference value: 16 +/- 2%); assay type: functional, cell-based; details: THP-1
[29] = Cell cycle arrest in human THP1 cells assessed as accumulation at S phase after 24 hrs by flow cytometric method; assay type: functional, cell-based; details: THP-1
[30] = Cell cycle arrest in human AsPC1 cells assessed as accumulation at G0/G1 phase at 75 uM after 24 hrs by flow cytometric method (reference value: 48 +/- 7%); assay type: functional, cell-based
[31] = Cell cycle arrest in human THP1 cells assessed as accumulation at S phase at 3 uM after 24 hrs by flow cytometric method (reference value: 16 +/- 2%); assay type: functional, cell-based; details: THP-1
ASPC1 [32] = test: Pro-apoptotic activity in human AsPC1 cells assessed as early apoptotic cells at 50 uM after 24 hrs by annexin V/propidium iodide staining-based flow cytometric method (reference value: 0.8 +/- 0.1%); assay type: functional
[33] = Cell cycle arrest in human AsPC1 cells assessed as accumulation at S phase at 100 uM after 24 hrs by flow cytometric method (reference value: 23 +/- 3%); assay type: functional, cell-based
[34] = Cell cycle arrest in human THP1 cells assessed as accumulation at G2/M phase at 10 uM after 24 hrs by flow cytometric method (reference value: 32 +/- 1%); assay type: functional, cell-based; details: THP-1
[35] = Cell cycle arrest in human AsPC1 cells assessed as accumulation at S phase at 1 uM after 24 hrs by flow cytometric method (reference value: 23 +/- 3%); assay type: functional, cell-based
ASPC1 [36] = test: Induction of pro-differentiation of human AsPC1 cells assessed as CD44 expression at 1 uM after 3 days by immunostaining-based micro-capillary flow cytometric method (reference value: 87 +/- 1%); assay type: functional

Work on `NC(=[Se])N/N=C/c1cccc2cccnc12` yielded an Activity [1] of 50%, an Activity [2] of 16.7% and an Activity [3] of 62%. For the same compound, the Activity [4] was 22.3%, the Activity (ASPC1 [5]) was 1.7% and the Activity [6] was 64.1%. For the same compound, the Activity [7] was 53.8%, the Activity [8] was 10.6% and the Activity [9] was 43%. The Activity (THP-1 [10]) was 2%, the Activity [11] was 43% and the Activity (ASPC1 [12]) was 0.3%. The Activity (ASPC1 [13]) was 5.5%, the Activity [14] was 30% and the Activity [15] was 43%. The Activity (ASPC1 [16]) was 26.5%, the IC50 [17] was 12.5 µM and the Activity [18] was “Dose-dependent effect”. It also gave an Activity (THP-1 [19]) of 2%, an Activity [20] of 27% and an Activity (THP-1 [21]) of 8%. It also gave an Activity [22] of 26%, an Activity [23] of 21.3% and an Activity [24] of 44%. The Activity [25] was 21%, the Activity (ASPC1 [26]) was 0.8% and the Activity (THP-1 [27]) was 0.4%. The Activity [28] was 32%, the Activity [29] was “Dose-dependent effect” and the Activity [30] was 63.3%. For the same compound, the Activity [31] was 27%, the Activity (ASPC1 [32]) was 0.4% and the Activity [33] was 18.8%. For the same compound, the Activity [34] was 28%, the Activity [35] was 35.5% and the Activity (ASPC1 [36]) was 53%.
